This note sets out measurements from patent publication US11167007B2, “FOXM1 modulators and uses thereof” (City of Hope, priority 2016, dated 2021).

“Also recorded” adds a separate entry of the source.

For the assay, the target named is T1, AR (Homo sapiens, UniProt P10275).
T1 sequence (P10275 1-920): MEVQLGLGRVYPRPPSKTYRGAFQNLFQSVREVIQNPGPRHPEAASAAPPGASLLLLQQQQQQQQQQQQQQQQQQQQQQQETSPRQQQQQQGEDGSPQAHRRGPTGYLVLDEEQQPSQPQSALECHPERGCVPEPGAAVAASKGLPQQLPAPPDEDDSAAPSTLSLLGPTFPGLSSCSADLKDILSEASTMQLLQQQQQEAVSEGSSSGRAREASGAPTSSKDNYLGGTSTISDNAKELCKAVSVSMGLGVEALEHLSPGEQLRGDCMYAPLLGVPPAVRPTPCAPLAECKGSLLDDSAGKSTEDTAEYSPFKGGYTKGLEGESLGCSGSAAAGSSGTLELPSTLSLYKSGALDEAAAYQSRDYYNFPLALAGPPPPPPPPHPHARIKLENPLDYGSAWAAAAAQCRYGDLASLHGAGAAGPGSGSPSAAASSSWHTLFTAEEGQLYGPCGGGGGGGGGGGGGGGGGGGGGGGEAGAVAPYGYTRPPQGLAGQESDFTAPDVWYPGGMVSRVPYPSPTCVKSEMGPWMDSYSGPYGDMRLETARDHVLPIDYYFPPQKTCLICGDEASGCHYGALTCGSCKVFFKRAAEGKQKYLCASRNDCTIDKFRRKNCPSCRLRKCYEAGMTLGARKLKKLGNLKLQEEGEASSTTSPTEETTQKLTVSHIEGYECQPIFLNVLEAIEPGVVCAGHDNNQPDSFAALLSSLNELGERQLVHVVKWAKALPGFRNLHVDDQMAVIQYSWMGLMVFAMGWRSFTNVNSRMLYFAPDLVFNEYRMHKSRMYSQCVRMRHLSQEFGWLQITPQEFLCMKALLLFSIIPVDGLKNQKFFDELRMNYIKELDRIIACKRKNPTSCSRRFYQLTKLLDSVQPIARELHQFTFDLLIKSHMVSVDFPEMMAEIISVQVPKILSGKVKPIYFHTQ
The assay can be described thus: FRET-based AR conformation change reporter (CARY) in C2C12 muscle cells. It counts as cell-based, murine. Details: Full length AR with cyan fluorescent protein (CFP) or yellow fluorescent protein (YFP) fused to either end (CARY); expressed in transfected cells. Particulars: FRET or luciferase. The protocol: Creation of stable C-AR-Y reporter cell lines. Cell lines listed above were either transfected with a plasmid or a virus containing the CFP-AR-YFP construct preceding an IRES and hygromycin resistance gene and clonal stable cell lines selected. Qualification criteria for the transfected cell lines were described by Jones et al, ACS Chem Biol, 3(7):412-8 (2008).
Screen for AR-modulators. Screening was performed essentially as described by Jones et al, ACS Chem Biol, 3(7):412-8 (2008). Briefly, C-AR-Y reporter GTI-7 were transferred to 96 well plates and treated with library compounds for 24 hours. […] The compounds to be tested were from the NCI/DTP Open Chemical Repository's Approved Oncology Drugs Set II, Diversity Set II and Mechanistic Set. […] After 24 hours, medium was aspirated and FRET was measured as previously described using a monochromator-based fluorescence plate reader (M1000, Tecan, Inc.). Jones et al, ACS Chem Biol, 3(7):412-8 (2008). […]
In order to identify potential cell-type selective AR modulators, the FRET-based assay of AR conformation change was utilized. […] This produces an accurate and quantifiable read-out of AR activity. […] Candidate hits were then further evaluated by dose response. […] In addition to FRET, AR transcriptional activity was also assessed in several cell lines by transfecting cells with a luciferase reporter driven by the human PSA promoter. […]

For `C=C(NC(=O)C(=C)NC(=O)c1csc(C2=N[C@@H]3c4csc(n4)[C@H]4NC(=O)c5csc(n5)[C@H]([C@](C)(O)[C@@H](C)O)NC(=O)[C@H]5CSC(=N5)/C(=C/C)NC(=O)[C@H]([C@@H](C)O)NC(=O)c5csc(n5)[C@]3(CC2)NC(=O)[C@H](C)NC(=O)C(=C)NC(=O)C(=C)NC(=O)[C@H](C(C)C)N[C@@H]2C=Cc3c([C@H](C)O)cc(nc3[C@H]2O)C(=O)O[C@@H]4C)n1)C(N)=O` [NSC285116, siomycin A], the “AR inhibitor (antagonist) activity in words” value is given as “little to no activity; also recorded: not C2C12 muscle cells”.
